Results taken from paper PMC8912008, “Pharmacokinetic Study of Withanosides and Withanolides from Withania somnifera Using Ultra-High Performance Liquid Chromatography-Tandem Mass Spectrometry (UHPLC-MS/MS)” (Molecules, 2022).
Like-named read-outs stand apart in the source and are kept apart here.

Assays:
[1] = in vitro; details: rat
[2] = in vivo; details: rat; for AUC(0-inf) / AUC(0-t) / Cmax / MRT inf / Tmax / half-life / k el: male, Sprague Dawley
Text: It is known that the hydrophobic interior surface of the cell membrane (lipid bilayer) serves as a barrier to the passage of polar and high molecular weight molecules.
Food pellets and tap water were provided ad libitum throughout the experimentation. The protocol to carry out in vivo pharmacokinetics was approved by The Institutional Animal Ethics Committee (IAEC) of Crystal Biological Solution, Pune, Maharashtra, India. […] Eighteen animals were subdivided into three groups, (n = 6) animals in each group. Withania somnifera extract suspension was prepared in water for oral administration, and the dose was calculated based on the acute oral toxicity study (500 mg/kg; single dose). […] The separated plasma samples were transferred into Eppendorf tubes and stored at −80 °C in a deep freezer until analysis. Ten pharmacokinetic parameters were determined using PK solver 2.0, USA [45, 46, 47]. The maximum observed concentration (Cmax) and maximum observed time (Tmax) were calculated directly from the experimental results. The elimination rate constant (Kel) was calculated from the slope of the linear regression of Log concentrations as a function of time. […] The area under the curve (AUC(0–t)) was calculated from the linear curve following the trapezoidal rule, while AUC(0–∞) was calculated by adding Ct/λ, with Ct being the final measurable concentration. Oral clearance (Cl/F) was obtained from the equation Cl/F = dose/AUC(0–∞). Mean residence time (MRT) was calculated as AUMC(0–∞)/AUC(0–∞), where AUMC(0–∞) is the area under the first moment curve. […] The pharmacokinetic parameters as the average of six rats ± SD. The mean plasma concentration Vs. time curve (mean ± SD) was prepared using Prism 8.2, (GraphPad, San Diego, CA, USA).

[3] = Stability of analytes in rat plasma; details: n = 6; for Processed sample stability (% ± SD): processed rat plasma sample, 4 h; for Bench top Stability (% ± SD): 25 °C for 4 h; for Freeze-thaw stability (% ± SD): three freeze/thaw cycles
[4] = tested on: chromosomes
Procedure: After completing the study, chromosomal slides were observed under 100×, and the % aberrated chromosomes were calculated.

[5] = Ex vivo permeability study, everted rat intestine apparatus
[6] = Balb/C mice, 4 mg/kg single intraperitoneal; cited from earlier work
[7] = male rats, cited from earlier work
[8] = mice, oral Withania somnifera aqueous extract 1000 mg/kg; cited from earlier work
[9] = high QC (nominal 200.50-201.50 ng/mL)
[10] = low QC (nominal 10.05-10.50 ng/mL)
[11] = rat plasma, high QC (nominal 200.50-201.50 ng/mL)
[12] = rat plasma, low QC (nominal 10.05-10.50 ng/mL)

Structure (SMILES): CC1=C(CO)C(=O)OC(C(C)C2CCC3C4C5OC5C5(O)CC=CC(=O)C5(C)C4CCC23C)C1 (stereo not drawn) [12-Deoxy-withastramonolide]
- Papp at 1 h, 2 mg/mL [1]: 0.122 ×10⁻⁶ cm/s
- AUC(0-inf) ([2]; in vivo, po, 500 mg/kg): 92.3 ± 13.5 ng·h/mL
- AUC(0-t) ([2]; in vivo, po, 500 mg/kg): 82.9 ± 7.82 ng·h/mL
- Cmax ([2]; in vivo, po, 500 mg/kg): 57.5 ± 7.52 ng/mL
- MRT inf ([2]; in vivo, po, 500 mg/kg): 140 ± 40 min
- Tmax ([2]; in vivo, po, 500 mg/kg): 17.5 ± 6.12 min
- half-life ([2]; in vivo, po, 500 mg/kg): 104 ± 30.3 min
- k el ([2]; in vivo, po, 500 mg/kg): 0.000121 s⁻¹
- oral clearance (Cl/F) ([2]; in vivo, po, 500 mg/kg): 0.016 ± 0.002 (mg/kg)/(ng/mL)/h
- Processed sample stability (% ± SD) [3, 9]: 92.99 ± 8.83%
- Processed sample stability (% ± SD) [3, 10]: 121.14 ± 59.07%
- Bench top Stability (% ± SD) [3, 11]: 95.97 ± 7.13%
- Bench top Stability (% ± SD) [3, 12]: 97.92 ± 7.04%
- Autosampler stability (% ± SD) [3, 11]: 108.67 ± 1.94%
- Autosampler stability (% ± SD) [3, 12]: 101.72 ± 3.25%
- Freeze-thaw stability (% ± SD) [3, 11]: 97.78 ± 4.28%
- Freeze-thaw stability (% ± SD) [3, 12]: 101.34 ± 8.37%

Structure (SMILES): O=P1(N(CCCl)CCCl)NCCCO1 (stereo not drawn) [Cyclophosphamide]
- % Aberration [4]: 52%
- MI mitotic index [4]: 52
- RCG (%) relative cell growth [4]: 112%
- RMI (%) relative mitotic index [4]: 85%
- Ratio with Negative [4]: 10.40

Structure (SMILES): CC1=C(CO)C(=O)O[C@@H]([C@@H](C)[C@H]2CC[C@H]3[C@@H]4C[C@H]5O[C@]56[C@@H](O)C=CC(=O)[C@]6(C)[C@H]4CC[C@]23C)C1 [Withaferin A]
- Papp at 1 h, 2 mg/mL [5]: 0.113 ×10⁻⁶ cm/s
- AUC(0–t) [6]: 1.09 µM·h
- Clearance from plasma [6]: 0.151 L/h
- Cmax [6]: 1800 nM
- Tmax [6]: 4.98 min
- plasma half-life [6]: 81.6 min
- bioavailability ([7]; withaferin A 10 mg/kg oral dose, 5 mg/kg I.V. dose): 32.4 ± 4.8%
- Cmax ([7]; withaferin A 10 mg/kg oral): 619 ± 125 ng/mL
- Tmax ([7]; withaferin A 10 mg/kg oral): 6.6 ± 4.2 min
- half-life ([7]; withaferin A 10 mg/kg oral): 456 ± 198 min
- AUC(0-inf) ([2]; plasma, po, 500 mg/kg): 188 ± 20.5 ng·h/mL
- AUC(0-t) ([2]; plasma, po, 500 mg/kg): 161 ± 18.9 ng·h/mL
- Cmax ([2]; plasma, po, 500 mg/kg): 124 ± 64.9 ng/mL
- MRT inf ([2]; plasma, po, 500 mg/kg): 231 ± 51.4 min
- Tmax ([2]; plasma, po, 500 mg/kg): 15 min
- half-life ([2]; plasma, po, 500 mg/kg): 189 ± 36.7 min
- k el ([2]; plasma, po, 500 mg/kg): 6.28e-05 s⁻¹
- oral clearance (Cl/F) ([2]; WSE 500 mg/kg oral single dose): 0.026 ± 0.003 (mg/kg)/(ng/mL)/h
- Processed sample stability (% ± SD) [3, 9]: 99.56 ± 5.11%
- Processed sample stability (% ± SD) [3, 10]: 103.30 ± 8.41%
- Bench top Stability (% ± SD) [3, 11]: 94.72 ± 6.57%
- Bench top Stability (% ± SD) [3, 12]: 103.30 ± 8.41%
- Autosampler stability (% ± SD) [3, 11]: 108.40 ± 1.59%
- Autosampler stability (% ± SD) [3, 12]: 103.09 ± 4.95%
- Freeze-thaw stability (% ± SD) [3, 11]: 102.10 ± 5.76%
- Freeze-thaw stability (% ± SD) [3, 12]: 103.41 ± 5.62%
- Long-term stability (% ± SD) ([3]; rat plasma, −80 °C for 60 days, high QC (nominal 200.50-201.50 ng/mL), the values are: measured concentration): 204 ± 8.81 ng/mL
- Tmax [8]: 20.00 min
- plasma half-life (t1/2) [8]: 59.92 ± 15.90 min

Structure (SMILES): CC1=C(C)C(=O)O[C@@H]([C@](C)(O)[C@H]2CC[C@H]3[C@@H]4[C@@H]5O[C@@H]5[C@@]5(O)CC=CC(=O)[C@]5(C)[C@H]4CC[C@]23C)C1 [Withanolide A]
- Papp at 1 h, 2 mg/mL [1]: 0.0665 ×10⁻⁶ cm/s
- AUC(0-inf) ([2]; in vivo, po, 500 mg/kg): 7.53 ± 1.83 ng·h/mL
- AUC(0-t) ([2]; in vivo, po, 500 mg/kg): 4.18 ± 1.03 ng·h/mL
- Cmax ([2]; in vivo, po, 500 mg/kg): 7.28 ± 3.34 ng/mL
- MRT inf ([2]; in vivo, po, 500 mg/kg): 75 ± 34.3 min
- Tmax ([2]; in vivo, po, 500 mg/kg): 20 ± 7.74 min
- half-life ([2]; in vivo, po, 500 mg/kg): 43.7 ± 25.4 min
- k el ([2]; in vivo, po, 500 mg/kg): 0.000391 s⁻¹
- oral clearance (Cl/F) ([2]; in vivo, po, 500 mg/kg): 0.356 ± 0.090 (mg/kg)/(ng/mL)/h
- Processed sample stability (% ± SD) [3, 9]: 99.36 ± 6.79%
- Processed sample stability (% ± SD) [3, 10]: 128.43 ± 68.06%
- Bench top Stability (% ± SD) [3, 11]: 103.63 ± 6.10%
- Bench top Stability (% ± SD) [3, 12]: 102.00 ± 7.99%
- Autosampler stability (% ± SD) [3, 11]: 105.04 ± 3.63%
- Autosampler stability (% ± SD) [3, 12]: 105.35 ± 3.83%
- Freeze-thaw stability (% ± SD) [3, 11]: 98.89 ± 4.24%
- Freeze-thaw stability (% ± SD) [3, 12]: 102.18 ± 6.01%
- plasma half-life (t1/2) [8]: 45.22 ± 9.95 min
